Assay results: publication PMC9598925, “Synthetic Amphipathic β-Sheet Temporin-Derived Peptide with Dual Antibacterial and Anti-Inflammatory Activities” (Antibiotics, 2022)
In brackets after ≈: the same amount, converted by molar mass. Read-outs that look alike come from different tables or passages of the source. Non-standard residues stand in square brackets, D forms with d. Residues, ends and D or L forms follow the SMILES beside them. Nle = CCCC[C@H](N)C(=O)O

Key:
HaCaT cells = test: Cytotoxicity on human keratinocytes, MTT assay; format: cell-based; settings: 3.12–12.5 μM, 2 h and 24 h
Method: The human immortalized keratinocytes HaCaT cells were purchased from AddexBio (San Diego, CA, USA) and cultured in Dulbecco’s modified Eagle’s medium supplemented with 4 mM glutamine (DMEMg), 10% heat-inactivated fetal bovine serum (FBS), and 0.1 mg/mL of penicillin and streptomycin, at 37 °C and 5% CO2, in 25 cm^2 or 75 cm^2 flasks. The in vitro MTT [3-(4,5-dimethylthiazol-2-yl)-2,5-diphenyltetrazolium bromide] assay, based on the reduction of the yellow tetrazolium salt MTT to the purple formazan by viable cells with active metabolism, was used to evaluate the peptide cytotoxicity on HaCaT cells, as previously described in [27]. Specifically, 4 × 10^4 HaCaT cells, suspended in DMEMg supplemented with 2% FBS were plated in a 96-well microtiter plate. After overnight incubation, at 37 °C in a 5% CO2 atmosphere, HaCaT cells were treated for 2 h or 24 h with fresh serum free medium containing the peptide [Nle^1, DLeu^9, DLys^10]TL in a concentration range from 3.12 to 100 μM. […] Formazan crystals were dissolved using acidified isopropanol, and the absorbance of each well was measured at 570 nm using a microplate reader (Infinite M200; Tecan, Salzburg, Austria). The number of viable cells was proportional to the intensity of purple color and was expressed as percentage compared to that of untreated control cells (100%). […]

sheep red blood cells = test: Hemolytic assay; format: cell-based
Method: Hemolysis was evaluated on sheep red blood cells (OXOID, SR0051D, Milan, Italy). Aliquots of cells in 0.9% (w/v) NaCl were incubated with the peptide [Nle^1, DLeu^9, DLys^10]TL at different concentrations (ranging from 3.12 to 100 μM) for 40 min at 37 °C with gentle shaking. Controls were erythrocytes treated with vehicle while total lysis controls were obtained by suspending cell in distilled water. Then, the samples were centrifuged for 5 min at 900× g, and the presence of hemoglobin in the supernatant was measured at an absorbance of 415 nm using a microplate reader (Infinite M200; Tecan, Salzburg, Austria) and compared to the complete lysis of erythrocytes (100%). The data reported are the mean ± the standard error of the mean (S.E.M.) of three independent experiments.

[1] = tested on: J774A.1 murine macrophage cells; settings: MTT, 3 independent experiments
Method: The spectrophotometric absorbance was then measured using a microtiter enzyme-linked immunosorbent assay reader (Multiskan™ GO Microplate Spectrophotometer; Thermo Scientific™, Milan, Italy) at 540 nm. The percentage of cell viability was assessed by the following formula: (OD of treated cells/OD of control) × 100.

in vitro = settings: male, human, 90% human serum (from human male AB plasma)
Method: The peptide was mixed with 90% of human serum at a final concentration of 200 μM and incubated at 37 °C [27]. Aliquots of the mixture were taken at time intervals of 15, 45, 75, 90 and 120 min. The serum protein was removed by the precipitation with acetonitrile (MeCN) and centrifuged at 13,000 rpm for 15 min. Then, the supernatant was taken and analyzed by ultra-high performance liquid chromatography (UHPLC) using a Phenomenex Kinetex column (4.6 mm × 150 mm, 5 μm, C18) and a linear gradient from 10 to 90% of MeCN (0.1% TFA) in water (0.1% TFA) over 20 min. The percentage of the intact peptide was calculated by integrating the peak area of the UHPLC chromatogram.

[2] = tested on: S. epidermidis ATCC 12228; format: cell-based
Method: (§1) All Gram-negative and Gram-positive strains were obtained from the American Type Culture Collection (Rockville, MD, USA). MICs were determined as described previously. 50 μL of bacterial culture properly diluted in Mueller–Hinton (MH) broth were added to each well of a 96-well plate containing 50 μL of MH with serially two-fold diluted peptide from 100 μM, to reach a final cell density of 1 × 10^6 CFU/mL. Each MIC value indicates the lowest concentration of compound that causes a total inhibition of bacterial growth after 16–18 h of incubation at 37 °C.

E. coli ATCC 25922 = format: cell-based
Method: as §1

S. aureus ATCC 25923 = format: cell-based
Method: as §1

[3] = tested on: K. pneumoniae ATCC BAA-1705; format: cell-based
Method: as §1

P. aeruginosa ATCC 27853 = format: cell-based
Method: as §1

A. baumannii ATCC 19606 = format: cell-based
Method: as §1

B. megaterium Bm11 = format: cell-based
Method: as §1

ANTS/DPX leakage assay = settings: 100% = 0.1% Triton
Method: The ability of the peptide [Nle^1, DLeu^9, DLys^10]TL to induce LUVs leakage was evaluated using ANTS/DPX assay. After the preparation of lipid films (0.1 mM) as described above, fluorophores ANTS (12.5 mM) and DPX (45 mM) were dissolved in water and added to lipid films. The mixture was frozen and lyophilized overnight. Then, the lipid films with ANTS and DPX were hydrated with PBS 1× buffer, vortexed for 1 h and then treated to obtain LUVs. The nonencapsulated ANTS and DPX were removed by gel filtration using a Sephadex G-50 column (1.5 cm × 10 cm) at room temperature. The leakage experiment was performed titrating LUVs with different peptide concentrations of 5, 10, 15, 20, 30, 50 μM, and each sample was excited at 385 nm (slit width, 5 nm) and the fluorescence emission was recorded at 512 nm (slit width, 5 nm). The liposomes leakage promoted by peptide was correlated with an increase of ANTS fluorescence at 512 nm. In this experiment, the control was represented by the complete release of ANTS after the treatment of LUVs with 0.1% Triton. The liposomes leakage was calculated as % Leakage = (Fi − F0)/(Ft − F0), where F0 is the fluorescence of intact LUVs before the addition of peptide, and Fi and Ft is the intensities of the fluorescence achieved after peptide and Triton-X treatment, respectively.

[4] = tested on: IL-6 production in LPS-stimulated J774A.1 cells; test: Anti-inflammatory activity, IL-6 ELISA in LPS-stimulated macrophages; format: cell-based, murine; settings: LPS 10 µg∙mL^−1, peptide 3 μM, 24 h, ELISA of supernatant, three independent experiments
Method: Mouse macrophage cell line J774A.1 was cultured as previously described. Cells were seeded in Petri culture dishes (100 mm × 20 mm) at a density of 5 × 10^5 cells per dish and allowed to grow for 24 h. The medium was then replaced, and cells were treated with LPS (10 μg∙mL^−1) in presence or absence of [Nle^1, DLeu^9, DLys^10]TL at the concentration of 3 µM (non-cytotoxic concentration from MTT assay). Following incubation of 24 h, cells were collected with a cell scraper, and after centrifugation at 14,000× g for 10 min at 4 °C, the supernatant was collected and assayed for IL-6 enzyme-linked immunosorbent assay (ELISA) analysis.

CCCC[C@H](N)C(=O)N[C@@H](Cc1ccccc1)C(=O)N[C@H](C(=O)N1CCC[C@H]1C(=O)N[C@@H](Cc1c[nH]c2ccccc12)C(=O)N[C@@H](Cc1ccccc1)C(=O)N[C@@H](CO)C(=O)N[C@@H](CCCCN)C(=O)N[C@@H](Cc1ccccc1)C(=O)N[C@H](CC(C)C)C(=O)N[C@H](CCCCN)C(=O)N[C@@H](CCCNC(=N)N)C(=O)N[C@H](C(=O)N[C@@H](CC(C)C)C(N)=O)[C@@H](C)CC)C(C)C [[Nle^1, DLeu^9, DLys^10]TL] (H-[Nle]FVPWFSKF[dL][dK]RIL-NH2)
effect on human keratinocytes viability (HaCaT cells): only a slight reduction
hemolysis (sheep red blood cells; 50 µM): ~ 40%
hemolysis (sheep red blood cells; 100 µM): ~ 40%
cytotoxic effect on murine macrophage cell line ([1]; J774A.1, 1–3 μM): safe profile
cytotoxic effect on murine macrophage cell line ([1]; J774A.1, 10 and 30 μM): significant reduction of cell viability
remaining at 0.75 h, 200 μM (in vitro): ~75%
remaining at 2 h, 200 μM (in vitro): ~50%
MIC [2]: 3.12 µM (≈ 5.6 µg/mL)
MIC (E. coli ATCC 25922): 6.25 µM (≈ 11.2 µg/mL)
MIC (S. aureus ATCC 25923): 3.12 µM (≈ 5.6 µg/mL)
MIC [3]: 12.5 µM (≈ 22.4 µg/mL)
MIC (P. aeruginosa ATCC 27853): 12.5 µM (≈ 22.4 µg/mL)
MIC (A. baumannii ATCC 19606): 3.12 µM (≈ 5.6 µg/mL)
MIC (B. megaterium Bm11): 0.78 µM (≈ 1.4 µg/mL)
LUVs leakage (ANTS/DPX leakage assay; 10 μM peptide, LUVs DOPG/CL): ~ 60%
LUVs leakage (ANTS/DPX leakage assay; highest concentration of 50 μM, LUVs DOPG/DOPE/CL): ~ 20%
IL-6 production [4]: significant modulation of IL-6 production
